Data published in ChEMBL document CHEMBL2074213, “In vitro activities of native and designed peptide antibiotics against drug sensitive and resistant tumor cell lines” (Peptides, 2003).
Bridge positions count the residues as written; N and C are the ends. Peptide text beside a SMILES is read from it.

biological target: ATP-dependent translocase ABCB1 (Homo sapiens, UniProt P08183); assay: TP_TRANSPORTER: drug resistance in MCF-7/Dox cells; format: functional, cell-based
Sequence (P08183 whole entry): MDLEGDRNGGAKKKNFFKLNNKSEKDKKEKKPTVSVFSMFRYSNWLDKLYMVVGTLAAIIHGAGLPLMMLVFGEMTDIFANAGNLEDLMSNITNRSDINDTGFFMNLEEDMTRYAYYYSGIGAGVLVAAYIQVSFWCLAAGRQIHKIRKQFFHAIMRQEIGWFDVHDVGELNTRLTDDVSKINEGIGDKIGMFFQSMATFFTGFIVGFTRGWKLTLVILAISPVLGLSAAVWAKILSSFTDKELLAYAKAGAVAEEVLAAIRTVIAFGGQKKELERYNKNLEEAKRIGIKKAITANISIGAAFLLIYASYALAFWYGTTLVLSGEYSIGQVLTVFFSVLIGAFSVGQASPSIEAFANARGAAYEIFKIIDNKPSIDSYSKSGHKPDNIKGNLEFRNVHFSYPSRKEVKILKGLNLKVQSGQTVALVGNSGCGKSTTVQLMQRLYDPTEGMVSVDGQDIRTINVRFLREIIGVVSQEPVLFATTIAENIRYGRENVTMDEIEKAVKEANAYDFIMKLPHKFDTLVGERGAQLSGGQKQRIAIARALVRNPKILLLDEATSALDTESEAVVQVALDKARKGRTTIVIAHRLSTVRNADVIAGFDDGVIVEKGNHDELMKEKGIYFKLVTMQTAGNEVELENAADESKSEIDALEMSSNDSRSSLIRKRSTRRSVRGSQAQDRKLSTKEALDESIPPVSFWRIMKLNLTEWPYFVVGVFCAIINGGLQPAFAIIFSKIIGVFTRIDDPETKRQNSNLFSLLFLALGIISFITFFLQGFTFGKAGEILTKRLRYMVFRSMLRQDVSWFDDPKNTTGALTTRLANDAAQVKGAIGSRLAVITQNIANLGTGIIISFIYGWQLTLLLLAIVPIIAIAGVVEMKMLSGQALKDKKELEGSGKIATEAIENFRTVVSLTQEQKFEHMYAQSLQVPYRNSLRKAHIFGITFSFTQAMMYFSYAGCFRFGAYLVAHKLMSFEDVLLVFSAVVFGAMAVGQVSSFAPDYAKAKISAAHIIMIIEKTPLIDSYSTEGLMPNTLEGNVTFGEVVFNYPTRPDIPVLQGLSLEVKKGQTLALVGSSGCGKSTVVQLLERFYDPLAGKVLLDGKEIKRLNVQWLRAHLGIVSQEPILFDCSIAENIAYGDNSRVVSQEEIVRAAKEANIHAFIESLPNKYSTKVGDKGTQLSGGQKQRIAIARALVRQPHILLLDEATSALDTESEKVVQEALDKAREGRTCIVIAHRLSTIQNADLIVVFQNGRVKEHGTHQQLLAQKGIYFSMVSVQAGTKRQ

Row | Compound | Activity
1 | COc1cccc2c1C(=O)c1c(O)c3c(c(O)c1C2=O)C[C@@](O)(C(=O)CO)C[C@@H]3O[C@H]1C[C@H](N)[C@H](O)[C@H](C)O1 [DOXORUBICIN] | substrate [+]
2 | CC[C@H](C)[C@@H]1NC(=O)[C@H](CCCCN)NC(=O)[C@@H](NC(=O)[C@@H](NC(=O)[C@@H](NC(=O)[C@@H](NC(=O)[C@@H]2CCCN2C(=O)[C@H](CC(C)C)NC(=O)[C@H](Cc2ccccc2)NC(=O)[C@H](CC(N)=O)NC(=O)[C@H](C)NC(=O)[C@H](C)NC(=O)[C@H](CC(C)C)NC(=O)CNC(=O)[C@H](C)NC(=O)[C@H](CC(C)C)NC(=O)[C@H](CC(C)C)NC(=O)[C@@H]2CCCN2C(=O)[C@H](CC(C)C)NC(=O)[C@@H](N)Cc2ccccc2)[C@@H](C)O)[C@@H](C)CC)[C@@H](C)CC)CSSC[C@@H](C(=O)O)NC(=O)[C@H](CCCCN)NC(=O)[C@H](Cc2ccc(O)cc2)NC(=O)[C@H](CO)NC1=O [GAEGURIN 6] (H-FLPLLAGLAANFLPTIICKISYKC-OH; disulfide 18-24) | is not a substrate [-]
3 | CC(=O)O[C@H]1C(=O)[C@@]2(C)[C@H]([C@H](OC(=O)c3ccccc3)[C@]3(O)C[C@H](OC(=O)[C@H](O)[C@@H](NC(=O)c4ccccc4)c4ccccc4)C(C)=C1C3(C)C)[C@]1(OC(C)=O)CO[C@@H]1C[C@@H]2O [PACLITAXEL] | substrate [+]
4 | H-FLGALFKALCKLL-OH | is not a substrate [-]
5 | H-FLGALFKALSKLL-OH | is not a substrate [-]
